Laboratory results published in article PMC11095988, “The Molecular Mechanism of FABP4 Inhibition Effects of GAS and 4-HBA in Gastrodia elata Blume Was Discussed Based on NMR and Molecular Docking” (Journal of Analytical Methods in Chemistry, 2024).

Assays:
FABP4 [1] = molecular target: T1, FABP4 (Homo sapiens, UniProt P15090); test: fluorescent probe, emission shift on binding to FABP4
T1 sequence (P15090 2-132): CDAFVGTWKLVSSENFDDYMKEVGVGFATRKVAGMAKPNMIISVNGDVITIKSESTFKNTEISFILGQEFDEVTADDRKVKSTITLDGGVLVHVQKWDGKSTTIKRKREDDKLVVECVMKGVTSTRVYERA

FABP4 [2] = molecular target: T1, FABP4; test: fluorescence displacement; STD-NMR (weak signal) and ligand-observed 1H-NMR; assay type: binding
FABP4 [3] = molecular target: T1, FABP4; test: fluorescence displacement; STD-NMR and ligand-observed 1H-NMR; assay type: binding

O=S(=O)(O)c1cccc2cccc(Nc3ccccc3)c12 [1,8-ANS, 8-anilino-1-naphthalenesulfonic acid]
fluorescent probe, emission shift on binding to FABP4 (FABP4 [1]): When ANS binds to FABP4, its maximum emission light will be blue-shifted

OCc1ccc(O)cc1 [4-HBA, 4-hydroxybenzyl alcohol]
IC50 (FABP4 [2]): 50.5 µM

OCc1ccc(O[C@@H]2O[C@H](CO)[C@@H](O)[C@H](O)[C@H]2O)cc1 [GAS, gastrodin]
IC50 (FABP4 [3]): 29.8 µM
